The target in assay [1] is T1, recombinant human MMP-2 (Homo sapiens, UniProt P08253).
T1 sequence (P08253 110-660): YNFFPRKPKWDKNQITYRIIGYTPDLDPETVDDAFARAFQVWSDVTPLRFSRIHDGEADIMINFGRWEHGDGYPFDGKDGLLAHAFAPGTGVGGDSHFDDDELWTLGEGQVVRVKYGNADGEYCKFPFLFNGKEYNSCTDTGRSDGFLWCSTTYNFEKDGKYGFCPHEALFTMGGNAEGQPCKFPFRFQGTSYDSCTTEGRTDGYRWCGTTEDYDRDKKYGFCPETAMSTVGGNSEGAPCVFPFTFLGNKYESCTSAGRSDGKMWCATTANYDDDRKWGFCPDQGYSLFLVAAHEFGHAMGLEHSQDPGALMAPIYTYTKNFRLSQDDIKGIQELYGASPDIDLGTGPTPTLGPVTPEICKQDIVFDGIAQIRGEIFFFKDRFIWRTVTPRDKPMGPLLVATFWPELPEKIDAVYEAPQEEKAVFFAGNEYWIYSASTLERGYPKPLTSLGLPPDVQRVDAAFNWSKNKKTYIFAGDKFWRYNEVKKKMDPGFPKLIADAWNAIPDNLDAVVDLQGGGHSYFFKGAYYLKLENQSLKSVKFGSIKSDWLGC
Nature of the assay: In-vitro fluorescence assay of MMP-2 activity. It counts as biochemical.
Protocol: A continuous assay was used in which the substrate is a synthetic peptide containing a fluorescent group (7-methoxycoumarin; Mca) that is quenched by energy transfer to a 2,4-dinitrophenyl group. […] The substrate used was Mca-PQGL-(3-[2,4-dinitrophenyl]-L-2,3-diaminopropionyl)-AR-OH (denoted as Wammp-5, custom synthesized by AnaSpec, Inc.). The assay buffer consisted of 50 mM Hepes (pH 7.4), 100 mM NaCl, 5 mM CaCI2, and 0.005% Brij-35. Each well of black polystyrene 96-well plates contained a 200 μL reaction mixture consisting of assay buffer, purified MMP (final concentration of 25 ng/ml, prepared by diluting with the assay buffer), and varied concentrations of inhibitor (prepared by serially diluting a given inhibitor in DMSO in 96-well polypropylene plate). […] The enzymatic reactions were initiated by adding the substrate to a final concentration of 20 μM, and mixing 10 times with a pipette. The final DMSO concentration in the assay was 6.0%.
Plots of the inhibitor concentration vs. the percent inhibition were fit to the following equation: y=(a−d)/[1+(x/c)^b]+d, a general sigmoidal curve with Hill slope, a to d. x is the inhibitor concentration under test. y is the percent inhibition. a is the limiting response as x approaches zero. As x increases without bound, y tends toward its limit d. c is the inflection point (IC50) for the curve. That is, y is halfway between the lower and upper asymptotes when x=c. b is the slope factor or Hill coefficient.

For assay [2], the system named is LPS-induced TNF-α secretion in human whole blood. Nature of the assay: Human whole blood assay for LPS-induced TNF-α secretion. Type of assay: cell-based. As to conditions: Homo sapiens, LPS 100 ng/ml, read-out: TNF Secretion HWB IC50. On the procedure:
procedure is essentially as described in Newton, R. C., et al., (2001) Ann Rheum […]32, incorporated by reference herein in its entirety. The basic measurement of the assay is the percentage of inhibition of TNF-α secretion and the IC50 determination by a […] model-39 of LSW data analysis tool. 350 μl of fresh human blood drawn from healthy volunteers were pre-incubated with compounds for one hour at the various concentrations at 37° C. with turning generally, the final DMSO concentrations should be kept below 0.2%. At the end of cubation, LPS (Sigma, L2262) was added to the blood at 100 ng/ml and the samples were further incubated for 4 hours or overnight at 37° C. with constant rotation. At the end of the incubation period, 650 μl of serum-free medium was added to the blood samples and the samples were centrifuged at 1500 rpm for 15 minutes. 500 μl of supernate was collected and frozen at -80° C. The TNF-α and other proinflammatory cytokines were detected by ELISA assay according to the manufacturer's instruction (Biosource International, Inc., Camarillo, Calif.).

Assay [3] deals with MMP-13 (Homo sapiens, UniProt P45452). Kind of assay: In-vitro fluorescence assay of MMP-13 activity. Type of assay: biochemical. As to the method:
See Knight, C. […] […].
The method was essentially the same as for the determination of MMP-1 activity, described above, except that the final concentration of purified MMP in the assay was 0.5 nM, prepared by diluting with the assay buffer.

Assay [4] deals with T2, TACE (catalytic domain of the recombinant TACE protein) (Homo sapiens, UniProt P78536).
T2 construct: The catalytic domain of the recombinant TACE protein was expressed and purified; made in house
T2 sequence (P78536 223-474 limits assumed): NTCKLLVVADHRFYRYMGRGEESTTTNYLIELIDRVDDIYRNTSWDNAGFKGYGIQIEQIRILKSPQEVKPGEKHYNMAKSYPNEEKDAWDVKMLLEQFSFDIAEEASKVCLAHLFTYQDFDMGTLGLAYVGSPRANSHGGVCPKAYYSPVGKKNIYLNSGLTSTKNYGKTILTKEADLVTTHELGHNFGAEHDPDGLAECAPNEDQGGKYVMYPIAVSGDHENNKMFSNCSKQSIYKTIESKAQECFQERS
Nature of the assay: TACE FRET assay using TACE Cat. It counts as biochemical. Particulars: pro-TNF-α substrate peptide. As to the method: The procedure is essentially as described in Jin, G. et al., Analytical Biochemistry (2002) 302, 269-275, incorporated by reference herein in its entirety. […] K is the IC50. Generally, n and B are floated, noting that n (hill slope) should be close to 1 and B (background offset) to 0.
Pro-TNF-α substrate peptide Abz-[…]-Dpa (AnaSpec, San Jose, Calif., WARC-1) was prepared as a 2 mM stock solution in the TACE assay buffer (50 mM Tris-HCI, pH 7.4, 25 mM NaCl, 4% Glycerol, 0.005% Brij 35). The catalytic domain of the recombinant TACE protein was expressed and purified. The TACE protein (1 ug/ml) was pretreated with the inhibitors at various concentrations for 10 min at room temperature. The reaction was initiated by the addition of the substrate peptide. The increase in fluorescence was monitored at an Excitation of 320 nm and an Emission of 420 nm over a period of 10 min. The initial rate (slope) of the reaction was determined using a fluorescence plate reader (Molecular Devices, Spectra Max Gemini XS).

For assay [5], the system named is TNF-α secretion in Raw 264.7 cells. Nature of the assay: Cell-based assay for inhibition of TNF-α secretion in Raw cells. As to conditions: Mus musculus, RAW264.7, LPS 100 ng/ml, 4 hr. On the procedure: The basic measurement of the assay is the percentage of inhibition of TNF-α secretion and the IC50 determination by a fitting with the model-39 of LSW data analysis tool. […] Cells are split twice a week by scraping and 1 to 10 or 20 dilutions. For testing compounds, cells are cultured to confluence and are seeded the day before the experiment in 24 well culture dishes at 0.5 to 1 million/ml well. On the next morning, the medium from the overnight culture is replaced with the fresh growth medium. The compounds are added at various concentration at the 0.2% of final DMSO concentrations (10 μl of a 20% DMSO solution containing testing compounds is added to each well). The cells are pre-incubated with compounds for 1 hr. LPS (Sigma, L2262) is added to cells at a final concentration of 100 ng/ml (10 μl of a […] LPS solution freshly diluted from a 1 mg/ml LPS stock solution in PBS is added to each well) and cells are further incubated for 4 hr at 37° C. 1 ml of the supernatant was collected, cells are spun down and the supernatants are frozen at −80° C. until use. The TNF-α and other proinflammatory cytokines were detected by an ELISA assay according to the manufacturer's instructions (Biosource International, Inc., Camarillo, Calif. (For IL-1b measurement in Raw cells, one round of freeze and thaw of the cells was required).

SMILES strings stand for the structures. Like-named read-outs stand apart in the source and are kept apart here.

The term IC50 denotes the concentration that inhibits the measured activity by half. With `Cc1cc(COc2ccc(S(=O)(=O)N[C@H]3[C@@H](C(=O)NO)[C@@H]4CC[C@H]3O4)cc2)c2ccccc2n1` (relative stereo) [Example 2, exo-N-Hydroxy-3-[({4-[(2-methylquinolin-4-yl)methoxy]phenyl}sulfonyl)amino]-7-oxabicyclo[2.2.1]heptane-2-carboxamide], the IC50 in assay [1] is > 16.7 µM; in assay [2] it was 9.9 µM; in assay [3] it was > 16.7 µM; in assay [4] (FRET, read-out: TACE IC50), 0.0022 µM.
As for `Cc1cc(COc2ccc(S(=O)(=O)N[C@@H]3[C@@H]4CC[C@@H](C4)[C@@H]3C(=O)NO)cc2)c2ccccc2n1` (relative stereo) [Example 6, endo-N-Hydroxy-3-[({4-[(2-methylquinolin-4-yl)methoxy]phenyl}sulfonyl)amino]bicyclo[2.2.1]heptane-2-carboxamide], the IC50 in assay [1] was > 16.7 µM; in assay [2], 47 µM; in assay [3] it was > 16.7 µM; in assay [4] (FRET, read-out: TACE IC50) it was 0.001 µM.
In the case of `Cc1cc(COc2ccc(S(=O)(=O)N[C@H]3[C@@H](C(=O)NO)[C@H]4C=C[C@@H]3C4)cc2)c2ccccc2n1` (relative stereo) [Example 7, endo-N-Hydroxy-3-[({4-[(2-methylquinolin-4-yl)methoxy]phenyl}sulfonyl)amino]bicyclo[2.2.1]hept-5-ene-2-carboxamide], the IC50 is > 16.7 µM in assay [1]; 34 µM in assay [2]; > 16.7 µM in assay [3]; 0.0012 µM in assay [4] (FRET, read-out: TACE IC50).
For `Cc1cc(COc2ccc(S(=O)(=O)N(C)[C@H]3[C@@H](C(=O)NO)[C@H]4C=C[C@@H]3C4)cc2)c2ccccc2n1` (relative stereo) [Example 8, endo-N-Hydroxy-3-[methyl({4-[(2-methylquinolin-4-yl)methoxy]phenyl}sulfonyl)amino]bicyclo[2.2.1]hept-5-ene-2-carboxamide], the IC50 in assay [1] was > 16.7 µM; in assay [2] it was > 50 µM; in assay [3] it was > 16.7 µM; in assay [4] (FRET, read-out: TACE IC50), 0.0015 µM.
`Cc1cc(COc2ccc(S(=O)(=O)N[C@H]3[C@@H](C(=O)NO)[C@@H]4C=C[C@H]3C4)cc2)c2ccccc2n1` (relative stereo) [Example 9, exo-N-Hydroxy-3-[({4-[(2-methylquinolin-4-yl)methoxy]phenyl}sulfonyl)amino]bicyclo[2.2.1] hept-5-ene-2-carboxamide]: the IC50 in assay [1] is > 16.7 µM; in assay [2], 9.3 µM; in assay [3], > 16.7 µM; in assay [4] (FRET, read-out: TACE IC50), 0.0001 µM.
For the molecule `Cc1cc(COc2ccc(S(=O)(=O)N[C@@H]3CC=CC[C@@H]3C(=O)NO)cc2)c2ccccc2n1` (relative stereo) [Example 10, cis-N-hydroxy-6-[({4-[(2-methylquinolin-4-yl)methoxy]phenyl}sulfonyl)amino]cyclohex-3-ene-1-carboxamide], the IC50 was > 16.7 µM in assay [1]; 4.2 µM in assay [2]; > 16.7 µM in assay [3]; 0.0011 µM in assay [4] (FRET, read-out: TACE IC50).
On to `Cc1cc(COc2ccc(S(=O)(=O)N[C@@H]3CCCC[C@@H]3C(=O)NO)cc2)c2ccccc2n1` (relative stereo) [Example 12, cis-N-hydroxy-2-[({4-[(2-methylquinolin-4-yl)methoxy]phenyl}sulfonyl)amino]cyclohexanecarboxamide], for which the IC50 is > 16.7 µM in assay [1], 2.2 µM in assay [2], > 16.7 µM in assay [3] and 0.08 µM in assay [5].
As to `Cc1cc(COc2ccc(S(=O)(=O)N[C@@H]3CNC[C@@H]3C(=O)NO)cc2)c2ccccc2n1` (relative stereo) [Example 22, cis-N-Hydroxy4-[({4-[(2-methylquinolin-4-yl)methoxy]phenyl}sulfonyl)amino]pyrrolidine-3-carboxamide], the IC50 was > 16.7 µM in assay [1], 0.27 µM in assay [2], > 16.7 µM in assay [3] and 0.09 µM in assay [5].
`Cc1cc(COc2ccc(S(=O)(=O)N(C)[C@H]3CCCC[C@@H]3C(=O)NO)cc2)c2ccccc2n1` (relative stereo) [Example 61, trans-N-hydroxy-2-[methyl({4-[(2-methylquinolin-4-yl)methoxy]phenyl}sulfonyl)amino]cyclohexanecarboxamide]: the concentration for half-maximal inhibition (IC50) in assay [1] is > 16.7 µM; in assay [2] it was 43 µM; in assay [3] it was > 16.7 µM; in assay [5], 0.911 µM.
As to `CN(C1C2CCC(C2)C1C(=O)NO)S(=O)(=O)c1ccc(OCc2ccc3ccccc3c2)cc1` (stereo in doubt) [Example 39, (1R,2S,3R,4S)-N-hydroxy-3-(methyl{[4-(2-naphthylmethoxy)phenyl]sulfonyl}amino)bicyclo[2.2.1]heptane-2-carboxamide], the IC50 in assay [4] (FRET, read-out: TACE IC50) turned out to be 0.172 µM.
Still for that read-out and setting: next, `CN(C1C2CCC(C2)C1C(=O)NO)S(=O)(=O)c1ccc(OCc2ccc3nonc3c2)cc1` (stereo in doubt) [Example 40, (1R,2S,3R,4S)-3-[{[4-(2,1,3-benzoxadiazol-5-ylmethoxy)phenyl]sulfonyl}(methyl)amino]-N-hydroxybicyclo[2.2.1]heptane-2-carboxamide]: 0.056 µM.
As to `Cc1cc(COc2ccc(S(=O)(=O)NC3C(C(=O)NO)C4CCC3N4C(=O)OC(C)(C)C)cc2)c2ccccc2n1` (stereo not drawn) [Example 37, tert-Butyl 2-[(hydroxyamino)carbonyl]-3-[({4-[(2-methylquinolin-4-yl)methoxy]phenyl}sulfonyl)amino]-7-azabicyclo[2.2.1]heptane-7-carboxylate], the half-inhibitory concentration (IC50) in assay [1] was > 16.7 µM; in assay [2] it was 59 µM; in assay [3], > 16.7 µM; in assay [4] (TACE IC50, FRET), 0.01 µM.
Take `Cc1cc(COc2ccc(S(=O)(=O)NC3C4CCC(N4)C3C(=O)NO)cc2)c2ccccc2n1` (stereo not drawn) [Example 38, 3-[4-(2-Methyl-quinolin-4-ylmethoxy)-benzenesulfonylamino]-7-aza-bicyclo[2.2.1]heptane-2-carboxylic acid hydroxyamide]: the IC50 is 8.68 µM in assay [1]; 26 µM in assay [2]; > 16.7 µM in assay [3]; 0.051 µM in assay [4] (TACE IC50, FRET).
Turning to `Cc1cc(COc2ccc(S(=O)(=O)N[C@@H]3CCC[C@]3(CO)C(=O)NO)cc2)c2ccccc2n1` [Example 58], the IC50 is 14 µM in assay [2] and 0.44 µM in assay [5].

Values taken from patent US7595327B2, “Beta-sulfonamide hydroxamic acid inhibitors of tace/matrix metalloproteinase” (priority 2005, dated 2009).
